The target of data set [1] is T1, human β1 adrenergic receptor (Homo sapiens, UniProt P08588).
T1 construct: expressed in transfected cells; host or cells: CHO (Chinese hamster ovary) cells, pcDNA3
Put plainly: Test example 2-B: human β1 adrenergic receptor agonist activity. Format: cell-based. The conditions noted are these: 0.5 h; read-out: β1 receptor I.A.

In data set [2] the target is T2, human β2 adrenergic receptor (Homo sapiens, UniProt P07550).
T2 construct: expressed in transfected cells; host or cells: CHO (Chinese hamster ovary) cells, pcDNA3
Nature of the data set: Test example 3-B: human β2 adrenergic receptor agonist activity. Format: cell-based. The following applies: read-out: β2 receptor I.A.

The subject of data set [3] is rat under pentobarbital anesthesia. Put plainly: Test example 9: effect on blood pressure and heart rate of a rat under pentobarbital anesthesia. Format: in vivo. The following applies: male SD rat, 3 mg/kg intravenous bolus; greatest change of mean blood pressure relative to before administration; mean ± standard deviation. Here is the method:
After measuring blood pressure and heart rate of a rat under pentobarbital anesthesia, an effect of intravenous bolus administration of a test compound on blood pressure and heart rate can be determined. To a male SD rat (Japan SLC Inc.), sodium pentobarbital (Tokyo Chemical Industry Co., Ltd.) is intraperitoneally administered for induction of anesthesia (50 mg/kg). As maintenance anesthetics, sodium pentobarbital is subcutaneously administered (25 mg/kg). Left femoral vein is exposed and stripped, and then a polyethylene tube SP10 (connected to a three-way stopcock via ¼ vein needle) which has been filled with physiological saline is inserted and left in the vein.
Left medial femoral region is cut to expose and strip the femoral artery, and then a polyethylene tube (SP31, connected to a three-way stopcock via 22 G injection needle by TERUMO Corporation) which has been filled with heparin physiological saline is inserted and connected to a pressure transducer. Blood pressure is measured from the pressure transducer by using a modified pressure amplifier (AP-641 G, Nihon Kohden Corporation). Heart rate is measured by using the Heart rate Counter (AT-601 g, Nihon Kohden Corporation) while having the pulse wave of the blood pressure as a trigger. The blood pressure, mean blood pressure and heart rate are transmitted to the data recorder for recordation. In addition, the mean blood pressure is recorded using a modified pressure amplifier (AP-641 G) according to the equation of {diastolic blood pressure+(systolic blood pressure−diastolic blood pressure)/3}.
Blood pressure and heart rate measurement is started, and after confirming that each value remains almost constant, the test compound (3 mg/kg) is administered to the left femoral vein for 30 seconds. Specifically, the test compound with 3 mg/mL concentration is bolus administered at the administration dose of 1 mL/kg. Relative value (%) at each time point compared to the mean blood pressure and the heart rate before the administration is obtained for each individual. […]

The nature of data set [4]: Test example 10: saturation solubility in pure water. Format: physicochemical. The following applies: thermodynamic from solid, room temperature, shaken 1 hour. The method, then:
Test compound is prepared to saturation state in pure water. The resulting solution is shaken at room temperature for 1 hour. To a filter tube, the entire solution obtained after the shaking is transferred and is subjected to centrifugal filtration at room temperature. The filtrate is analyzed by HPLC, and by using a calibration curve, saturation solubility of the test compound is obtained from the peak area value.
(§1) Standard solution is prepared by precisely weighing each test compound and fully dissolving it in pure water. Calibration curve is established by having the concentration of the standard solution as a horizontal axis and the HPLC area value at the corresponding concentration as a vertical axis.
(§2) As a separation column, YMC-Pack C18 (4.6 mm×150 mm, manufactured by YMC) is used. Detection is made at UV-254 nm and the temperature inside the column is 40° C. Condition for elution is as follows; with flow rate of 1 ml/minute, solution A as a solvent=water [comprising 0.1% (v/v) acetic acid] and solution B=acetonitrile are used, and from minute 0 to minute 20, 5 to 98% (v/v) linear gradient of solution B is applied, followed by elution with 98% of solution B until minute 25 and elution with 5% of solution B from minute 25.01 to minute 35.

A short description of data set [5]: Test example 11: solubility test in hydrochloric acid buffer solution having pH 1.2. Format: physicochemical. The following applies: 37 °C, pH 1.2, simulated gastric fluid, thermodynamic from solid, pH 1.2, 37° C., prepared at 1000 μg/mL. The method, then:
(§3) 500 μg of the test compound is precisely weighed, and then added with hydrochloric acid buffer solution having pH 1.2 until the concentration of 1000 μg/mL is obtained. The […] is shaken at 37° C. for 1 hour. To a filter tube, the entire solution obtained after the shaking is transferred and is subjected to centrifugal filtration at room temperature. The filtrate is analyzed by HPLC, and by using a calibration curve, saturation solubility of the test compound is obtained from the peak area value.
Standard solution is prepared by precisely weighing 500 μg of the test compound and dissolving it DMSO to obtain the concentration of 1 mg/mL.
as §2

Data set [6] can be described thus: Test example 12: solubility test in physiological saline. Format: physicochemical. The conditions noted are these: saline or isotonic, thermodynamic from solid, 37° C., prepared at 1000 μg/mL. The method, then: as §3
Except that the hydrochloric acid buffer solution having pH 1.2 is replaced with physiological saline, the test is carried out in the same method as Test example 11 to obtain the solubility of the test compound.

A short description of data set [7]: Test example 13: stability test in pure water. Format: physicochemical. The following applies: for stability in pure water (finding): up to 48 hours. The method, then: (§4) Test compound is prepared to saturation state in pure water. The resulting solution is shaken at room temperature for 1 hour. To a filter tube, the entire solution obtained after the shaking is transferred and is subjected to centrifugal filtration at room temperature. The filtrate is analyzed by HPLC right after the filtration, 24 hours, and 48 hours after the filtration. Then, by using a calibration curve, stability of the test compound is obtained from the peak area value.
as §1, §2

The nature of data set [8]: Test example 14: stability in phosphate buffer solution having pH 6.8. Format: physicochemical. The following applies: for HPLC area percentage at 24 hours after the filtration / HPLC area percentage at 48 hours after the filtration / HPLC area percentage right after the filtration: phosphate buffer solution pH 6.8; for stability in phosphate buffer solution pH 6.8 (finding): up to 48 hours. Here is the method: as §4
Except that pure water is replaced with phosphate buffer solution having pH 6.8, the test is carried out in the same method as Test example 13 to obtain the stability of the test compound.

Data set [9] has as its system urinary bladder smooth muscle isolated from common marmoset. Put plainly: Test example 7: relaxant activity on urinary bladder smooth muscle isolated from common marmoset. The conditions noted are these: strips contracted by 40 mmol/L KCl, papaverine 10^−4 mol/L relaxation = 100%.
Description: Specifically, a common marmoset (CLEA Japan, Inc.) is bled to exsanguinated death, and then the urinary bladder is taken out of the marmoset via laparotomy. […] A resting tension of 1 g is applied to the strips, which is then equilibrated for more than 30 minutes. […] The final concentration is 10^−9, 10^−8, 10^−7, 10^−8, 10^−5 and 10^−4 mol/L. Upon the completion of the relaxation response to the test compound at the highest concentration, papaverine with final concentration of 10^−4 mol/L is added and the maximum relaxation response is obtained for each strip. This relaxation response is taken as 100%, and the relaxation ratio (%) is obtained for the test compound at the concentrations of 10^−5 and 10^−4 mol/L.

≈ marks a conversion by molar mass, not a printed value.

T1 sequence (P08588 whole entry): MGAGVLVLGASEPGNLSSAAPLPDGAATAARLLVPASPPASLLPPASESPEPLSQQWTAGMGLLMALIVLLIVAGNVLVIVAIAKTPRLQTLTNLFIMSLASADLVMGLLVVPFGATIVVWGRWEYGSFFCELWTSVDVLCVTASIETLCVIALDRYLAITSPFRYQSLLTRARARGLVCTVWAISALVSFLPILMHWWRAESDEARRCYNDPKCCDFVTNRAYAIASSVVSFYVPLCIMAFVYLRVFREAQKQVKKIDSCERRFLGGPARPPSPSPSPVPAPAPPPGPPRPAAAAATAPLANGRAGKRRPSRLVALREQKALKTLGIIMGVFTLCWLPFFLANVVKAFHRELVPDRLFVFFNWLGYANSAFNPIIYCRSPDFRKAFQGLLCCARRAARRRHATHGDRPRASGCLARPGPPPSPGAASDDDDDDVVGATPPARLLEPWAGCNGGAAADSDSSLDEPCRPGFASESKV
T2 sequence (P07550 whole entry): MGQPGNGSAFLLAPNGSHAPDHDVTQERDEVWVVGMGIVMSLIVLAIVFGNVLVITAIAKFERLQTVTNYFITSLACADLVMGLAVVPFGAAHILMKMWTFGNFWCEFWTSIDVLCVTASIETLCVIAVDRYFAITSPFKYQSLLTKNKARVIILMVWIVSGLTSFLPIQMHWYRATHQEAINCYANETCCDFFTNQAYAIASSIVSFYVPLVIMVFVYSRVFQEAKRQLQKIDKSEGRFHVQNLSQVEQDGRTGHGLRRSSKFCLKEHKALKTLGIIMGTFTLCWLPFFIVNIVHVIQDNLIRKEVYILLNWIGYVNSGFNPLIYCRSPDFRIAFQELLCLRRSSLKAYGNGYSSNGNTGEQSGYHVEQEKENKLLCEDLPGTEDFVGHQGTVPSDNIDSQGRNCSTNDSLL

Turning to `CS(=O)(=O)Nc1cccc([C@@H](O)CNCCOc2ccc3c(C4CC4)n[nH]c3c2)c1` [Example 1, (R)—N-(3-(1-Hydroxy-2-(2-(3-cyclopropylindazol-6-yloxy)ethylamino)ethyl)phenyl)methanesulfonamide], in data set [1], the Emax worked out at 10%. In [2], the Emax stood at 6.3%. Moreover, in data set [3], the “increase in MBP (%)” value is 2.7 ± 0.5%. This compound displayed a solubility at 1 h in data set [4] of 55000 µg/mL (≈ 128000 µM). Further, the solubility at 1 h in data set [5] was 982 µg/mL (≈ 2280 µM). This compound also displayed a solubility at 1 h in data set [6] of 999 µg/mL (≈ 2320 µM). In addition, in data set [7], the “HPLC area percentage at 24 hours after the filtration” value (“HPLC area percentage at 24 hours” for short) worked out at 95.6%, the “HPLC area percentage at 48 hours after the filtration” value (“HPLC area percentage at 48 hours” for short) is 95.6%, the “HPLC area percentage right after the filtration” value (“HPLC area percentage right” for short) is 95.7% and the “stability in pure water (finding)” value was “stable”. Moreover, in [8], the “HPLC area percentage at 24 hours” value was determined as 95.5%, the “HPLC area percentage at 48 hours” value is reported as 95.5%, the “HPLC area percentage right” value came out at 95.7% and the “stability in phosphate buffer solution pH 6.8 (finding)” value is recorded as “stable”. Besides, in [9], the “relaxant activity (%) 10^−4 M” value came out at 55.7% and the “relaxant activity (%) 10^−5 M” value is 38.6%.
On to `CS(=O)(=O)Nc1cccc([C@@H](O)CNCCOc2ccc3c(C4CCC4)n[nH]c3c2)c1` [Example 2, (R)—N-(3-(1-Hydroxy-2-(2-(3-cyclobutylindazol-6-yloxy)ethylamino)ethyl)phenyl)methanesulfonamide], for which the Emax in data set [1] came to 9.9%. The Emax in [2] is 3.8%. Also, the “increase in MBP (%)” value in [3] is given as 4.0 ± 2.6%. Also, the concentration in solution in data set [4] (solubility at 1 h) was 53000 µg/mL (≈ 119000 µM). The solubility at 1 h in [5] is above 1000 µg/mL. In data set [6], this compound yielded a solubility at 1 h of 999 µg/mL (≈ 2250 µM). Moreover, in data set [7], the “HPLC area percentage at 24 hours” value was 95.2%, the “HPLC area percentage at 48 hours” value is 95.0%, the “HPLC area percentage right” value is reported as 95.2% and the “stability in pure water (finding)” value is listed as “stable”. Moreover, in [8], the “HPLC area percentage at 24 hours” value turned out to be 93.3%, the “HPLC area percentage at 48 hours” value was determined as 94.5%, the “HPLC area percentage right” value is 95.1% and the “stability in phosphate buffer solution pH 6.8 (finding)” value is on record as “stable”. In data set [9], the “relaxant activity (%) 10^−4 M” value turned out to be 65.6% and the “relaxant activity (%) 10^−5 M” value is listed as 50.8%.

The term solubility denotes the dissolved amount per volume that the medium holds. The low end stands for little dissolved substance, the high end for much dissolved substance.

These data come from patent US8304443B2, “Indazole derivatives” (Asahi Kasei Pharma Corporation, priority 2008, dated 2012).
